Results published in ChEMBL document CHEMBL3585277, “Novel type of plasmin inhibitors: providing insight into P4 moiety and alternative scaffold to pyrrolopyrimidine” (Bioorg Med Chem, 2015).

What was measured:
Plasminogen [1] = target: T1, Plasminogen (Homo sapiens, UniProt P00747); assay: Inhibition of plasmin (unknown origin) using Boc-Val-Leu-Lys-MCA as substrate by fluorescence analysis
Plasminogen [2] = target: T1, Plasminogen; assay: Inhibition of plasmin (unknown origin) assessed as relative potency using Boc-Val-Leu-Lys-MCA as substrate by fluorescence analysis
[3] = target: Urokinase-type plasminogen activator (Homo sapiens, UniProt P00749); assay: Inhibition of urokinase (unknown origin) using Pyr-Gly-Arg-MCA as substrate by fluorescence analysis

T1 sequence (P00747 97-580 limits assumed): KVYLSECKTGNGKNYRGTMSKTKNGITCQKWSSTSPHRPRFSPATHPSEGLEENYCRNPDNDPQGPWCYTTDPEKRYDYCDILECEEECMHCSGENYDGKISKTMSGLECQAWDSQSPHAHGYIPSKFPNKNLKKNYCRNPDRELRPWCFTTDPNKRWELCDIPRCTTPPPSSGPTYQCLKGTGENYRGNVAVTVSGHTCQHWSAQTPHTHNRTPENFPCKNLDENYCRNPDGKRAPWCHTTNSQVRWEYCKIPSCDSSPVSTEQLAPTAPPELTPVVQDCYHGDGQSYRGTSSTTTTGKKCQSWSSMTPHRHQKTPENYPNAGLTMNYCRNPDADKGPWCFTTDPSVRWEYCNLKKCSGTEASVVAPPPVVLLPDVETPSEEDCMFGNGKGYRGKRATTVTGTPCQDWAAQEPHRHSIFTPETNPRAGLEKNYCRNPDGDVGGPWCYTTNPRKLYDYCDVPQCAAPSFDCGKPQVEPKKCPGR
T1 sequence (P00747 581-810 limits assumed): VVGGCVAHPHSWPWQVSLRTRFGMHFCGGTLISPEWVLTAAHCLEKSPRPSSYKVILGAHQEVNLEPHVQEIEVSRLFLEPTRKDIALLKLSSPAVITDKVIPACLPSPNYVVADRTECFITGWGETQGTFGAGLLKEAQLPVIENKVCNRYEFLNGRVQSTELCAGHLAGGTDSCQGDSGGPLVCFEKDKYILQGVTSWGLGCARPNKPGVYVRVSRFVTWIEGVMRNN

Structure (SMILES) | IC50 (Plasminogen [1]) [µM] | fold change (FC) (Plasminogen [2]) | IC50 [3] [µM]
Cn1c(CN2C(=O)CN(c3ccc4oc(=O)n(Cc5ccncc5)c4c3)C2=O)cc2cnc(C(=O)N[C@H](C#N)CCCCN)nc21 | 23 |  | 
Cn1c(CN2C(=O)CN(c3ccc4c(c3)oc(=O)n4Cc3ccncc3)C2=O)cc2cnc(C(=O)N[C@H](C#N)CCCCN)nc21 | > 200 |  | 
Cn1c(CN2C(=O)CN(c3ccc(F)cc3)C2=O)cc2cnc(C(=O)N[C@H](C#N)CCCCN)nc21 | 43 | 3 | > 200
Cn1c(CN2C(=O)CN(c3ccc4c(c3)oc(=O)n4C)C2=O)cc2cnc(C(=O)N[C@H](C#N)CCCCN)nc21 | 130 | 3.9 | 
N#C[C@H](CCCCN)NC(=O)c1nc2cc(CN3C(=O)CN(c4ccc(F)cc4)C3=O)ccc2o1 | > 200 | > 14.3 | 
CC(C)Cn1c(=O)oc2cc(N3CC(=O)N(Cc4cc5cnc(C(=O)N[C@H](C#N)CCCCN)nc5n4C)C3=O)ccc21 | > 200 |  | 
CCCn1c(=O)oc2ccc(N3CC(=O)N(Cc4cc5cnc(C(=O)N[C@H](C#N)CCCCN)nc5n4C)C3=O)cc21 | 26 |  | 
Cn1c(CN2C(=O)CN(c3ccc4oc(=O)n(C)c4c3)C2=O)cc2cnc(C(=O)N[C@H](C#N)CCCCN)nc21 | 43 | 3.1 | 
CCCn1c(=O)oc2cc(N3CC(=O)N(Cc4cc5cnc(C(=O)N[C@H](C#N)CCCCN)nc5n4C)C3=O)ccc21 | 160 |  | 
Cn1c(CN2C(=O)CN(c3ccc(Oc4ccccc4)cc3)C2=O)nc2ccc(C(=O)N[C@H](C#N)CCCCN)cc21 | 25 |  | 
Cn1c(CN2C(=O)CN(c3ccc(Oc4ccncc4)cc3)C2=O)cc2cnc(C(=O)N[C@H](C#N)CCCCN)nc21 | 74 |  | > 200
Cn1c(CN2C(=O)CN(c3ccc(Oc4ccccc4)cc3)C2=O)cc2cnc(C(=O)N[C@H](C#N)CCCCN)nc21 | 14 | 1 | > 200
Cn1c(CN2C(=O)CN(c3ccc(F)cc3)C2=O)nc2ccc(C(=O)N[C@H](C#N)CCCCN)cc21 | 100 |  | > 200
Cn1c(CN2C(=O)CN(c3ccc(Oc4ccccc4)cc3)C2=O)nc2cc(C(=O)N[C@H](C#N)CCCCN)ccc21 | > 200 |  | 
CC(C)Cn1c(=O)oc2ccc(N3CC(=O)N(Cc4cc5cnc(C(=O)N[C@H](C#N)CCCCN)nc5n4C)C3=O)cc21 | 29 |  | 
Cn1c(CN2C(=O)CN(c3ccc(Oc4ccncc4)cc3)C2=O)nc2ccc(C(=O)N[C@H](C#N)CCCCN)cc21 | 56 |  | > 200
